Laboratory results as given in patent US11414379B2, “SPAK kinase inhibitors as neuroprotective agents” (United States Government as represented by the Department …, priority 2018, dated 2022).

Experiments:
Test in all cases: Kinase panel (Dundee profiling)
Type in all cases: biochemical
Settings in all cases: read-out: % residual kinase activity
[1] = target: TSSK1 (Homo sapiens, UniProt Q9BXA7)
Procedure: (§1) The kinase selectivity of ZT-1a was further assessed using standard radioisotopic enzymatic assays against a panel of 140 recombinant kinases (Dundee profiling, Table 2) (Bain et al. (2007) The Biochemical journal 408, 297-315). ZT-1a at a concentration of 10 μM inhibited only MAPKAP-K2 activity 85±7% compared to DMSO control, representing high kinase selectivity.
(§2) Referring to Table 2, ZT-1a was tested at 10 and 1 μM against a panel of 140 recombinant kinases in an enzymatic activity-based assay performed by the International Centre for Kinase Profiling in the MRC Protein Phosphorylation and Ubiquitylation Unit. Values represent % residual kinase activity (mean+/−SEM, n=3). Kinases labelled with an asterick* are inhibited ≥50% by ZT-1a.

[2] = target: TTBK2 (Homo sapiens, UniProt Q6IQ55)
Procedure: as §1, §2

[3] = target: ERK1 (Homo sapiens, UniProt P27361)
Procedure: as §1, §2

[4] = target: IRAK1 (Homo sapiens, UniProt P51617)
Procedure: as §1, §2

[5] = target: NEK6 (Homo sapiens, UniProt Q9HC98)
Procedure: as §1, §2

[6] = target: p38b MAPK (Homo sapiens, UniProt Q15759)
p38b MAPK, sequence (Q15759 whole entry): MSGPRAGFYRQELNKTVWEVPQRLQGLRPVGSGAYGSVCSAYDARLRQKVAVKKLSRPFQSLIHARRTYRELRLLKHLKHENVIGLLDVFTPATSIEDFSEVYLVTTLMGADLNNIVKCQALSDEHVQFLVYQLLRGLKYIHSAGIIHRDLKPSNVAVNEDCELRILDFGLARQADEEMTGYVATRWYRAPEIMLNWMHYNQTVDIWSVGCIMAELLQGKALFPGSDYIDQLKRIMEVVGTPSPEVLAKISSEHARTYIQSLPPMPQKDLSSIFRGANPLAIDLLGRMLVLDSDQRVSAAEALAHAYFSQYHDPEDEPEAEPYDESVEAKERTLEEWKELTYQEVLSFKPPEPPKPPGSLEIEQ
Procedure: as §1, §2

[7] = target: MKK1 (Homo sapiens, UniProt Q02750)
Procedure: as §1, §2

[8] = target: HIPK1 (Homo sapiens, UniProt Q86Z02)
Procedure: as §1, §2

[9] = target: PIM1 (Homo sapiens, UniProt P11309)
Procedure: as §1, §2

[10] = target: ULK1 (Homo sapiens, UniProt O75385)
Procedure: as §1, §2

[11] = target: MELK (Homo sapiens, UniProt Q14680)
Procedure: as §1, §2

[12] = target: TESK1 (Homo sapiens, UniProt Q15569)
TESK1, sequence (Q15569 whole entry, species assumed): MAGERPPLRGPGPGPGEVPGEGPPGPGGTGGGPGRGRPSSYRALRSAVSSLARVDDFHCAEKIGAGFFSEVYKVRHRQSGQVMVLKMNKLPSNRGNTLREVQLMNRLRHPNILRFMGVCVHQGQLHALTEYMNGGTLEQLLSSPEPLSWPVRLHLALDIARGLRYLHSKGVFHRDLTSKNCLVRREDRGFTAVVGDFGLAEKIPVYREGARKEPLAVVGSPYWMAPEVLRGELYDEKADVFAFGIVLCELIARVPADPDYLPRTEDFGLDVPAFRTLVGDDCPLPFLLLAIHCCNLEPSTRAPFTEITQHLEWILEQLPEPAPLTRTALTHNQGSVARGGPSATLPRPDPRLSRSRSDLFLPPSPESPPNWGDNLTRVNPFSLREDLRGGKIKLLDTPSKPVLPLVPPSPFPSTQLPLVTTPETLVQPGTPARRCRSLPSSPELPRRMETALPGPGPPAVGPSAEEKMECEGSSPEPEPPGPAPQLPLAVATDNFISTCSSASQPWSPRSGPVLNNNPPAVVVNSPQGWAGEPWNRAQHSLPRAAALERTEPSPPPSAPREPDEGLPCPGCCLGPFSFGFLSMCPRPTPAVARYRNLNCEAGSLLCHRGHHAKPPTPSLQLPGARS
Procedure: as §1, §2

[13] = target: MAP4K3 (Homo sapiens, UniProt Q8IVH8)
MAP4K3, sequence (Q8IVH8 whole entry, species assumed): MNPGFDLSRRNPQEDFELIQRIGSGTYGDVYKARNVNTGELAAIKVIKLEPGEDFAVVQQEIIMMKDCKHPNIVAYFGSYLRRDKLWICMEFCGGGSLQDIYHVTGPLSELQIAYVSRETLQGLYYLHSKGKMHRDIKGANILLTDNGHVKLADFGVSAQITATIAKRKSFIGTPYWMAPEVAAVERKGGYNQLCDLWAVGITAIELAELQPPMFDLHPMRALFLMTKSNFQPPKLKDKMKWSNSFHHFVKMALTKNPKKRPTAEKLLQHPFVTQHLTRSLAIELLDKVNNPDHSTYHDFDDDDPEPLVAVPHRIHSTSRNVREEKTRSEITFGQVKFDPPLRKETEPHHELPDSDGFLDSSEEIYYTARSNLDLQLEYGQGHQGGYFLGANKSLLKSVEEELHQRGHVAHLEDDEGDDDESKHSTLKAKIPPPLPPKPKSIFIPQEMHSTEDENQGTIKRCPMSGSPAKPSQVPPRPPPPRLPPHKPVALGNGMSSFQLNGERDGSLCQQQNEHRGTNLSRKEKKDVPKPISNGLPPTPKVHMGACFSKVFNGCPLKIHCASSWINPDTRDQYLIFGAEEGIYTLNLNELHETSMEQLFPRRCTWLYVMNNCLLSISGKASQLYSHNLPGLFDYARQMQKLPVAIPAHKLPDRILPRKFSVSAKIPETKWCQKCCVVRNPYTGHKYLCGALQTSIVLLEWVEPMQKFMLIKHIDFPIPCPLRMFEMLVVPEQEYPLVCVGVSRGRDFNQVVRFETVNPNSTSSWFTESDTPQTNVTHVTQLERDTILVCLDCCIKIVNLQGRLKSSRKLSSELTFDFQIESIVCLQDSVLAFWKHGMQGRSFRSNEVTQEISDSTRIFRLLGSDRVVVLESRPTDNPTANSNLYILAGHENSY
Procedure: as §1, §2

[14] = target: TGFBR1 (Homo sapiens, UniProt P36897)
TGFBR1, sequence (P36897 34-503, species assumed): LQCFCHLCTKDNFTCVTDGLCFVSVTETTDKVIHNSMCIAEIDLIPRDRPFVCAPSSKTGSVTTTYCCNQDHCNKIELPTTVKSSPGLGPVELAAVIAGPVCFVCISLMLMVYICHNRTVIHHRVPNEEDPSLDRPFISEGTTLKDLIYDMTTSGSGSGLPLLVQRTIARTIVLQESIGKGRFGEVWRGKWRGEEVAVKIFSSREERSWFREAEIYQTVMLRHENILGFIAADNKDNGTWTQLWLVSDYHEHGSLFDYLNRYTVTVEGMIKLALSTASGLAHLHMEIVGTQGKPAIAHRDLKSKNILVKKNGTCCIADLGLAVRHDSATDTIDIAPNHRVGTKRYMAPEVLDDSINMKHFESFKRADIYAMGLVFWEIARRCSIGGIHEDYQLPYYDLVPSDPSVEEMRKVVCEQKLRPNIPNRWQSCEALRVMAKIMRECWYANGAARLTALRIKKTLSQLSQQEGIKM
Procedure: as §1, §2

[15] = target: JNK1 (Homo sapiens, UniProt P45983)
JNK1, sequence (P45983 whole entry, species assumed): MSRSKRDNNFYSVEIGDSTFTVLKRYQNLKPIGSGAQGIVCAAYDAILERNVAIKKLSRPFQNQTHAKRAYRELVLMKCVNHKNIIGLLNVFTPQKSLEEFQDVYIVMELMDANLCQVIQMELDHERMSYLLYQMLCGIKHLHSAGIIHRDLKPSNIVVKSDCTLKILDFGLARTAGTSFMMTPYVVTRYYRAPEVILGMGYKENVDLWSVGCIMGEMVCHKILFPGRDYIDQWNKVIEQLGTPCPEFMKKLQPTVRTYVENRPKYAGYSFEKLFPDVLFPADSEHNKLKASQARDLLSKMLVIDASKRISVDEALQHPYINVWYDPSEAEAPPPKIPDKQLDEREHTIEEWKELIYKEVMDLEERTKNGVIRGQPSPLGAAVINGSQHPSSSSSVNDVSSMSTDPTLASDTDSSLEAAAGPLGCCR
Procedure: as §1, §2

[16] = target: SYK (Homo sapiens, UniProt P43405)
Procedure: as §1, §2

[17] = target: p38g MAPK (Homo sapiens, UniProt P53778)
p38g MAPK, sequence (P53778 whole entry): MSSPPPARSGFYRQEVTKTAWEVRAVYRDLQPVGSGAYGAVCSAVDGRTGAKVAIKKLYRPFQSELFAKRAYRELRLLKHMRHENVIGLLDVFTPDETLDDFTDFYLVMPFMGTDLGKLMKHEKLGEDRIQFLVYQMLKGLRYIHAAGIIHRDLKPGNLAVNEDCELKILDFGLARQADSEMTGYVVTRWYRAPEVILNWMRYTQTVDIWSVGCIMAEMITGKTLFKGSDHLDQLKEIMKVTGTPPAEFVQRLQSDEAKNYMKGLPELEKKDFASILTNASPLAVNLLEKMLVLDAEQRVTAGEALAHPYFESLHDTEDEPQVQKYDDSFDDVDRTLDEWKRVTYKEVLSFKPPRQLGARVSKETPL
Procedure: as §1, §2

[18] = target: SIK2 (Homo sapiens, UniProt Q9H0K1)
Procedure: as §1, §2

[19] = target: SRPK1 (Homo sapiens, UniProt Q96SB4)
Procedure: as §1, §2

[20] = target: IKKb (Homo sapiens, UniProt O14920)
Procedure: as §1, §2

[21] = target: MNK2 (Homo sapiens, UniProt Q9HBH9)
Procedure: as §1, §2

[22] = target: CDK2-Cyclin A (Homo sapiens, UniProt P24941)
Procedure: as §1, §2

[23] = target: EPH-B4 (Homo sapiens, UniProt P54760)
Procedure: as §1, §2

[24] = target: EPH-A2 (Homo sapiens, UniProt P29317)
EPH-A2, sequence (P29317 24-976, species assumed): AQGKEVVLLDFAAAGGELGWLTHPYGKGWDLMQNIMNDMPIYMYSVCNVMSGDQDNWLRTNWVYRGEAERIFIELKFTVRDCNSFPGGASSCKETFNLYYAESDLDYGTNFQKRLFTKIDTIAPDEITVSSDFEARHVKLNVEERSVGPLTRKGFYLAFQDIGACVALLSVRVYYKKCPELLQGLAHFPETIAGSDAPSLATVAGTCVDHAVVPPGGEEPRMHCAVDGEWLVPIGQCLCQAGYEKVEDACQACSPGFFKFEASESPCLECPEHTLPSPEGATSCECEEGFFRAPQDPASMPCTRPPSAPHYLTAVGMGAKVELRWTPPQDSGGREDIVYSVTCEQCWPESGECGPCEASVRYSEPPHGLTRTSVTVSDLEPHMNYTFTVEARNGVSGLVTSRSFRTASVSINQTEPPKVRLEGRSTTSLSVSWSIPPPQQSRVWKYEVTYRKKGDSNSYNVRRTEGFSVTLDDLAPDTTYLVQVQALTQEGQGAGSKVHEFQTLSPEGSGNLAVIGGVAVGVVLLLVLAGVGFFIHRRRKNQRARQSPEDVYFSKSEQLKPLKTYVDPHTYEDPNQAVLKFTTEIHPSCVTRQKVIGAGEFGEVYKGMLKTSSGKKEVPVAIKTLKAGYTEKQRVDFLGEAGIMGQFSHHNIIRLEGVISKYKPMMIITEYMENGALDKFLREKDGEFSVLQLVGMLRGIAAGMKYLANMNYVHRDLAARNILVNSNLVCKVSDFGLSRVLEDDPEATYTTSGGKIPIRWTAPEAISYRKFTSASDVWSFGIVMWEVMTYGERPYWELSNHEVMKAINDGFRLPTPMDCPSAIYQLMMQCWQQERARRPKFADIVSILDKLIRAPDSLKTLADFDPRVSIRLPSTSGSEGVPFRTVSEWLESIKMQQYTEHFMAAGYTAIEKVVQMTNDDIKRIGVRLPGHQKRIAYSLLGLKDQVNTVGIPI
Procedure: as §1, §2

[25] = target: Aurora A (Homo sapiens, UniProt O14965)
Procedure: as §1, §2

[26] = target: CLK2 (Homo sapiens, UniProt P49760)
CLK2, sequence (P49760 whole entry, species assumed): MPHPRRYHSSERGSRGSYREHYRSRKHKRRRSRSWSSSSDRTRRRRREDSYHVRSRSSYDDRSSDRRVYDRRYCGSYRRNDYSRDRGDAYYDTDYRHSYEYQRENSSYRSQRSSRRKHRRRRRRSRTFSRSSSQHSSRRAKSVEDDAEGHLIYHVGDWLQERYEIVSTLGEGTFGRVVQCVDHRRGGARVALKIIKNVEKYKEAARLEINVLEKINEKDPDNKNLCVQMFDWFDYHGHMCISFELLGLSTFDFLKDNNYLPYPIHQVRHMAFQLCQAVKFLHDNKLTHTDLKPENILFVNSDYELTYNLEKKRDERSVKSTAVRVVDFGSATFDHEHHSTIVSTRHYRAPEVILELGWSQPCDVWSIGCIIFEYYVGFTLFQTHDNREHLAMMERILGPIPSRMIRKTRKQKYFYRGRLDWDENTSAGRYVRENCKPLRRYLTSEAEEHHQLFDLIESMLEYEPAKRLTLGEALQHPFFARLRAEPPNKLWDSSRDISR
Procedure: as §1, §2

[27] = target: DYRK1A (Homo sapiens, UniProt Q13627)
Procedure: as §1, §2

[28] = target: PAK4 (Homo sapiens, UniProt O96013)
Procedure: as §1, §2

[29] = target: Aurora B (Homo sapiens, UniProt Q96GD4)
Aurora B, sequence (Q96GD4 whole entry): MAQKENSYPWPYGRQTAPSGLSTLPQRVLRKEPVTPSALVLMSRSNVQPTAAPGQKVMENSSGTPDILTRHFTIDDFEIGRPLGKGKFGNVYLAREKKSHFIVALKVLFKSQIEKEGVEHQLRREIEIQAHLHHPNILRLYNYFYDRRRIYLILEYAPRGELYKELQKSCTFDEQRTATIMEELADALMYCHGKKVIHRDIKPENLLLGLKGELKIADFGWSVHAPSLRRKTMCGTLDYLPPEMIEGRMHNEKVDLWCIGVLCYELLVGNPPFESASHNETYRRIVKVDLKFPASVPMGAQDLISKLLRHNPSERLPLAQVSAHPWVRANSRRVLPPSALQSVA
Procedure: as §1, §2

[30] = target: BTK (Homo sapiens, UniProt Q06187)
Procedure: as §1, §2

[31] = target: IKKe (Homo sapiens, UniProt Q14164)
Procedure: as §1, §2

[32] = target: ABL (Homo sapiens, UniProt P00519)
Procedure: as §1, §2

Cc1cc(C(C#N)c2ccc(Cl)cc2)c(Cl)cc1NC(=O)c1cc(Cl)ccc1O (stereo not shown) [ZT-1a, 5-chloro-N-(5-chloro-4-((4-chlorophenyl)(cyano)methyl)-2-methylphenyl)-2-hydroxy-benzamide]
remaining activity at 1 µM ([1]; 1 μM): 99 ± 2%
remaining activity at 10 µM ([1]; 10 μM): 74 ± 6%
remaining activity at 1 µM ([2]; 1 μM): 101 ± 32%
remaining activity at 10 µM ([2]; 10 μM): 98 ± 34%
remaining activity at 1 µM ([3]; 1 μM): 107 ± 16%
remaining activity at 10 µM ([3]; 10 μM): 109 ± 18%
remaining activity at 1 µM ([4]; 1 μM): 128 ± 2%
remaining activity at 10 µM ([4]; 10 μM): 95 ± 7%
remaining activity at 1 µM ([5]; 1 μM): 107 ± 6%
remaining activity at 10 µM ([5]; 10 μM): 108 ± 1%
remaining activity at 1 µM ([6]; 1 μM): 124 ± 1%
remaining activity at 10 µM ([6]; 10 μM): 124%
remaining activity at 1 µM ([7]; 1 μM): 106 ± 2%
remaining activity at 10 µM ([7]; 10 μM): 114 ± 17%
remaining activity at 1 µM ([8]; 1 μM): 98 ± 13%
remaining activity at 10 µM ([8]; 10 μM): 90 ± 4%
remaining activity at 1 µM ([9]; 1 μM): 108 ± 19%
remaining activity at 10 µM ([9]; 10 μM): 101 ± 8%
remaining activity at 1 µM ([10]; 1 μM): 87 ± 10%
remaining activity at 10 µM ([10]; 10 μM): 89 ± 13%
remaining activity at 1 µM ([11]; 1 μM): 130 ± 34%
remaining activity at 10 µM ([11]; 10 μM): 63 ± 3%
remaining activity at 1 µM ([12]; 1 μM): 109 ± 3%
remaining activity at 10 µM ([12]; 10 μM): 77 ± 10%
remaining activity at 1 µM ([13]; 1 μM): 134 ± 5%
remaining activity at 10 µM ([13]; 10 μM): 88 ± 2%
remaining activity at 1 µM ([14]; 1 μM): 63 ± 9%
remaining activity at 10 µM ([14]; 10 μM): 77 ± 5%
remaining activity at 1 µM ([15]; 1 μM): 106 ± 4%
remaining activity at 10 µM ([15]; 10 μM): 110 ± 5%
remaining activity at 1 µM ([16]; 1 μM): 93 ± 12%
remaining activity at 10 µM ([16]; 10 μM): 93 ± 1%
remaining activity at 1 µM ([17]; 1 μM): 100 ± 11%
remaining activity at 10 µM ([17]; 10 μM): 100 ± 6%
remaining activity at 1 µM ([18]; 1 μM): 105 ± 16%
remaining activity at 10 µM ([18]; 10 μM): 76 ± 8%
remaining activity at 1 µM ([19]; 1 μM): 104 ± 5%
remaining activity at 10 µM ([19]; 10 μM): 73 ± 20%
remaining activity at 1 µM ([20]; 1 μM): 101%
remaining activity at 10 µM ([20]; 10 μM): 78 ± 3%
remaining activity at 1 µM ([21]; 1 μM): 100 ± 7%
remaining activity at 10 µM ([21]; 10 μM): 105 ± 3%
remaining activity at 1 µM ([22]; 1 μM): 128 ± 12%
remaining activity at 10 µM ([22]; 10 μM): 125 ± 6%
remaining activity at 1 µM ([23]; 1 μM): 100 ± 8%
remaining activity at 10 µM ([23]; 10 μM): 151 ± 33%
remaining activity at 1 µM ([24]; 1 μM): 89 ± 23%
remaining activity at 10 µM ([24]; 10 μM): 78 ± 11%
remaining activity at 1 µM ([25]; 1 μM): 73 ± 19%
remaining activity at 10 µM ([25]; 10 μM): 65 ± 1%
remaining activity at 1 µM ([26]; 1 μM): 68 ± 12%
remaining activity at 10 µM ([26]; 10 μM): 33 ± 45%
remaining activity at 1 µM ([27]; 1 μM): 119 ± 7%
remaining activity at 10 µM ([27]; 10 μM): 103 ± 1%
remaining activity at 1 µM ([28]; 1 μM): 81 ± 16%
remaining activity at 10 µM ([28]; 10 μM): 51 ± 3%
remaining activity at 1 µM ([29]; 1 μM): 119 ± 6%
remaining activity at 10 µM ([29]; 10 μM): 92 ± 15%
remaining activity at 1 µM ([30]; 1 μM): 113 ± 1%
remaining activity at 10 µM ([30]; 10 μM): 73 ± 2%
remaining activity at 1 µM ([31]; 1 μM): 87 ± 13%
remaining activity at 10 µM ([31]; 10 μM): 59 ± 5%
remaining activity at 1 µM ([32]; 1 μM): 85 ± 4%
remaining activity at 10 µM ([32]; 10 μM): 68 ± 16%
